Molecules are shown by their SMILES.

For one experiment, the target named is T1, ASGP receptor (biotinylated ASGPR) (Homo sapiens, UniProt P07306).
T1 construct: biotin (biotinylated)
T1 sequence (P07306 1-291): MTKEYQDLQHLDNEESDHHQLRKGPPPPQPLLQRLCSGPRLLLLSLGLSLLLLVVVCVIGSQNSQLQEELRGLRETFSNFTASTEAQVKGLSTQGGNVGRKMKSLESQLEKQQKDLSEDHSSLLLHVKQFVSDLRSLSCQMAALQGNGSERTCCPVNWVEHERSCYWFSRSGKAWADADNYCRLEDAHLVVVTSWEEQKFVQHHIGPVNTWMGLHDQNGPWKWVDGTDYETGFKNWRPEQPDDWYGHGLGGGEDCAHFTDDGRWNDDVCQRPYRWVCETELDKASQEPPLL
The experiment is classed as binding. The note with it: SPR, Biacore 8K, 25° C.; Table 1A; read-out: ASGPR KD.
Turning to `O=C(O)CCC(=O)NC1CC2(C1)CC(NC(=O)C[C@H]1OC[C@H](Nc3cncc(C(F)(F)F)n3)[C@@H](O)[C@H]1O)C2` (stereo partly shown) [A93], the Kd was less than 10 µM. The same measure, in the same setting: the value for `OC[C@H]1O[C@@H](c2ccccc2)[C@H](Nc2nccc(C(F)(F)F)n2)[C@@H](O)[C@H]1O` [A94, (2R,3R,4R,5R,6S)-2-(hydroxymethyl)-6-phenyl-5-((4-(trifluoromethyl)pyrimidin-2-yl)amino)tetrahydro-2H-pyran-3,4-diol] was less than 10 µM. The same measure, in the same setting: then `CC(=O)N[C@@H]1[C@@H](O)[C@@H](O)[C@@H](CO)O[C@@H]1c1ccccc1` [A95, N-((2R,3R,4R,5R,6R)-4,5-dihydroxy-6-(hydroxymethyl)-2-phenyltetrahydro-2H-pyran-3-yl)acetamide], with less than 10 µM; and `OC[C@H]1O[C@H](c2ccccc2)[C@H](Nc2nccc(C(F)(F)F)n2)[C@@H](O)[C@H]1O` [A96, (2R,3R,4R,5R,6R)-2-(hydroxymethyl)-6-phenyl-5-((4-(trifluoromethyl)pyrimidin-2-yl)amino)tetrahydro-2H-pyran-3,4-diol], with less than 10 µM; and `O=C(O)c1ccc(N2CCC(CN3CCN(C[C@H]4OC[C@H](Nc5ccnc(C(F)(F)F)n5)[C@@H](O)[C@H]4O)CC3)CC2)cc1` [A97, 4-(4-((4-(((2R,3R,4R,5S)-3,4-dihydroxy-5-((2-(trifluoromethyl)pyrimidin-4-yl)amino)tetrahydro-2H-pyran-2-yl)methyl)piperazin-1-yl)methyl)piperidin-1-yl)benzoic acid], with less than 10 µM. The same measure, in the same setting: the value for `NC[C@H]1OC[C@H](Nc2cccc(C(F)(F)F)n2)[C@@H](O)[C@H]1O` [A98, (2R,3R,4R,5S)-2-(aminomethyl)-5-((6-(trifluoromethyl)pyridin-2-yl)amino) tetrahydro-2H-pyran-3,4-diol] was less than 10 µM. On to `NC[C@H]1OC[C@H](Nc2nc(C(F)(F)F)ccc2F)[C@@H](O)[C@H]1O` [A99, (2R,3R,4R,5S)-2-(aminomethyl)-5-((3-fluoro-6-(trifluoromethyl)pyridin-2-yl)amino)tetrahydro-2H-pyran-3,4-diol], for which the Kd is less than 10 µM. Same read-out and setting: the value for `O=C(O)c1ccc(N2CCC(CN3CCN(C[C@H]4OC[C@H](Nc5cccc(C(F)(F)F)n5)[C@@H](O)[C@H]4O)CC3)CC2)cc1` [A100, 4-(4-((4-(((2R,3R,4R,5S)-3,4-dihydroxy-5-((6-(trifluoromethyl)pyridin-2-yl)amino)tetrahydro-2H-pyran-2-yl)methyl)piperazin-1-yl)methyl)piperidin-1-yl)benzoic acid] was less than 10 µM. Turning to `O=C(O)c1ccc(N2CCC(CN3CCN(C[C@H]4OC[C@H](Nc5nc(C(F)(F)F)ccc5F)[C@@H](O)[C@H]4O)CC3)CC2)cc1` [A101, 4-(4-((4-(((2R,3R,4R,5S)-5-((3-fluoro-6-(trifluoromethyl)pyridin-2-yl)amino)-3,4-dihydroxytetrahydro-2H-pyran-2-yl)methyl)piperazin-1-yl)methyl)piperidin-1-yl)benzoic acid], the Kd was less than 10 µM.

Consider `CC(=O)N1C[C@H](Nc2cncc(C(F)(F)F)n2)[C@@H](O)[C@@H](O)C1` [A102, 1-((3S,4R,5S)-3,4-dihydroxy-5-((6-(trifluoromethyl)pyrazin-2-yl)amino)piperidin-1-yl)ethan-1-one], for which the Kd is less than 10 µM. Still for that read-out and setting: then `O=C(O)COCCOCC(=O)NC[C@H]1OC[C@H](Nc2cccc(C(F)(F)F)n2)[C@@H](O)[C@H]1O` [A103, 2-(2-(2-((((2R,3R,4R,5S)-3,4-dihydroxy-5-((6-(trifluoromethyl)pyridin-2-yl)amino)tetrahydro-2H-pyran-2-yl)methyl)amino)-2-oxoethoxy)ethoxy)acetic acid], with less than 10 µM; and `OC[C@H]1O[C@H](Cc2ccccc2)[C@@H](Nc2nccc(C(F)(F)F)n2)[C@@H](O)[C@H]1O` [A104], with 10 to 100 µM; and `OC[C@H]1O[C@H](c2ccccc2)[C@H](Nc2cncc(C(F)(F)F)n2)[C@@H](O)[C@H]1O` [A105, (2R,3R,4R,5R,6R)-2-(hydroxymethyl)-6-phenyl-5-((6-(trifluoromethyl)pyrazin-2-yl)amino)tetrahydro-2H-pyran-3,4-diol], with less than 10 µM. Same read-out and setting: the value for `O=C(O)COCCOCC(=O)NC[C@H]1OC[C@H](Nc2nccc(C(F)(F)F)n2)[C@@H](O)[C@H]1O` [A106, 2-(2-(2-((((2R,3R,4R,5S)-3,4-dihydroxy-5-((4-(trifluoromethyl)pyrimidin-2-yl)amino)tetrahydro-2H-pyran-2-yl)methyl)amino)-2-oxoethoxy)ethoxy)acetic acid] was less than 10 µM; that for `O=C(O)COCCOCC(=O)NC[C@H]1OC[C@H](Nc2ccnc(C(F)(F)F)c2)[C@@H](O)[C@H]1O` [A107, 2-(2-(2-((((2R,3R,4R,5S)-3,4-dihydroxy-5-((2-(trifluoromethyl)pyridin-4-yl)amino)tetrahydro-2H-pyran-2-yl)methyl)amino)-2-oxoethoxy)ethoxy)acetic acid] was less than 10 µM; that for `OC[C@H]1OC[C@H](Nc2ccccc2)[C@@H](O)[C@H]1O` [A108, (2R,3R,4R,5S)-2-(hydroxymethyl)-5-(phenylamino)tetrahydro-2H-pyran-3,4-diol] was less than 10 µM.

For `OC[C@H]1O[C@@H](c2ccccc2)[C@H](Nc2cncc(C(F)(F)F)n2)[C@@H](O)[C@H]1O` [A109, (2R,3R,4R,5R,6S)-2-(hydroxymethyl)-6-phenyl-5-((6-(trifluoromethyl)pyrazin-2-yl)amino)tetrahydro-2H-pyran-3,4-diol], the Kd was in the range of 10 to 100 µM.

Take `O=C(O)COCCOCC(=O)NC[C@H]1OC[C@H](Nc2nc(C(F)(F)F)ccc2F)[C@@H](O)[C@H]1O` [A110, 2-(2-(2-((((2R,3R,4R,5S)-5-((3-fluoro-6-(trifluoromethyl)pyridin-2-yl)amino) 3,4-dihydroxytetrahydro-2H-pyran-2-yl)methyl)amino)-2-oxoethoxy)ethoxy)acetic acid]: the Kd was less than 10 µM. On the same count and under the same terms, the value for `O=C(O)c1ccc(S(=O)(=O)NC[C@H]2OC[C@H](Nc3cncc(C(F)(F)F)n3)[C@@H](O)[C@H]2O)cc1` [A111, 4-(N-(((2R,3R,4R,5S)-3,4-dihydroxy-5-((6-(trifluoromethyl)pyrazin-2-yl)amino)tetrahydro-2H-pyran-2-yl)methyl)sulfamoyl)benzoic acid] was less than 10 µM; that for `O=S(=O)(NC[C@H]1OC[C@H](Nc2cncc(C(F)(F)F)n2)[C@@H](O)[C@H]1O)c1ccccc1` [A112, N-(((2R,3R,4R,5S)-3,4-dihydroxy-5-((6-(trifluoromethyl)pyrazin-2-yl)amino)tetrahydro-2H-pyran-2-yl)methyl)benzenesulfonamide] was less than 10 µM; that for `O=C(NC[C@H]1OC[C@H](Nc2cncc(C(F)(F)F)n2)[C@@H](O)[C@H]1O)Nc1ccc(C(=O)O)cc1` [A113, 4-(3-(((2R,3R,4R,5S)-3,4-dihydroxy-5-((6-(trifluoromethyl)pyrazin-2-yl)amino)tetrahydro-2H-pyran-2-yl)methyl)ureido)benzoic acid] was less than 10 µM. The same measure, in the same setting: then `O=C(NC[C@H]1OC[C@H](Nc2cncc(C(F)(F)F)n2)[C@@H](O)[C@H]1O)Nc1ccccc1` [A114, 1-(((2R,3R,4R,5S)-3,4-dihydroxy-5-((6-(trifluoromethyl)pyrazin-2-yl)amino)tetrahydro-2H-pyran-2-yl)methyl)-3-phenylurea], with less than 10 µM.

In the case of `O=C(O)CCCCCNC(=O)NC[C@H]1OC[C@H](Nc2cncc(C(F)(F)F)n2)[C@@H](O)[C@H]1O` [A115, 6-(3-(((2R,3R,4R,5S)-3,4-dihydroxy-5-((6-(trifluoromethyl)pyrazin-2-yl)amino)tetrahydro-2H-pyran-2-yl)methyl)ureido)hexanoic acid], the dissociation constant (Kd) is less than 10 µM. Same read-out and setting: then `O=C(O)COCCOCC(=O)NC[C@H]1OC[C@H](Nc2ccnc(C(F)(F)F)n2)[C@@H](O)[C@H]1O` [A116, 2-(2-(2-((((2R,3R,4R,5S)-3,4-dihydroxy-5-((2-(trifluoromethyl)pyrimidin-4-yl)amino)tetrahydro-2H-pyran-2-yl)methyl)amino)-2-oxoethoxy)ethoxy)acetic acid], with less than 10 µM. Still for that read-out and setting: the value for `OC[C@H]1NC[C@H](Nc2nccc(C(F)(F)F)n2)[C@@H](O)[C@H]1O` [A117] was less than 10 µM; that for `OC[C@H]1NC[C@H](Nc2cncc(C(F)(F)F)n2)[C@@H](O)[C@H]1O` [A118] was less than 10 µM. On the same count and under the same terms, the value for `OC[C@H]1OC[C@H](Nc2cncc(Br)n2)[C@@H](O)[C@H]1O` [A138, (2R,3R,4R,5S)-5-((6-bromopyrazin-2-yl)amino)-2-(hydroxymethyl) tetrahydro-2H-pyran-3,4-diol] was less than 10 µM.

The experiment is the same for the next values; noted with them: SPR, Biacore 8K, 25° C.; Table 1B; read-out: ASGPR Kd.
With `N#Cc1cc(N[C@H]2CO[C@H](CO)[C@H](O)[C@@H]2O)nc(C(F)(F)F)c1` [A139, 2-(((3S,4R,5R,6R)-4,5-dihydroxy-6-(hydroxymethyl)tetrahydro-2H-pyran-3-yl)amino)-6-(trifluoromethyl)isonicotinonitrile], the Kd was less than 10 µM. Regarding `OC[C@H]1OC[C@H](Oc2nccc(C(F)(F)F)n2)[C@@H](O)[C@H]1O` [A140, (2R,3R,4S,5S)-2-(hydroxymethyl)-5-((4-(trifluoromethyl)pyrimidin-2-yl)oxy)tetrahydro-2H-pyran-3,4-diol], the Kd is less than 10 µM.

As for `OC[C@H]1OC[C@H](Oc2cncc(C(F)(F)F)n2)[C@@H](O)[C@H]1O` [A141, (2R,3R,4S,5S)-2-(hydroxymethyl)-5-((6-(trifluoromethyl)pyrazin-2-yl)oxy)tetrahydro-2H-pyran-3,4-diol], the Kd was less than 10 µM. On the same count and under the same terms, the value for `OC[C@H]1OC[C@H](Oc2cccc(C(F)(F)F)n2)[C@@H](O)[C@H]1O` [A142, (2R,3R,4S,5S)-2-(hydroxymethyl)-5-((6-(trifluoromethyl)pyridin-2-yl)oxy)tetrahydro-2H-pyran-3,4-diol] was less than 10 µM.

For the origin of these results see patent US20260083851A1 (AVILAR THERAPEUTICS, INC., priority 2022, published 2026).
